The values that follow come from patent US10300066B2, “Polyfluorinated compounds acting as bruton tyrosine kinase inhibitors” (ZHEJIANG DTRM BIOPHARMA CO. LTD., priority 2014, dated 2019).

What is called Cmax is the peak of the concentration-time curve. For orientation: AUC means the area under the concentration-time curve, a measure of exposure.

Series [1] in a line: 28-day toxicokinetic (TK) study in rats. Format: in vivo, rat. Conditions: for AUC: rat, in vivo, read-out: AUC (area under the curve).
Series [2] is described as follows: Toxicity and TK studies, 28-day rat and dog. Conditions: 28-day rat and dog studies. The source says:
Toxicity and toxicokinetic (TK) studies of the compounds can be performed by well known methods.

Series [3] in a line: 28-day toxicokinetic (TK) study in dogs. Conditions: for AUC: dog, in vivo, 15 mg/kg. Format: in vivo, dog.
[4] abbreviates: 100 mg/kg, Study Day 28, Female.
[5] abbreviates: 45 mg/kg/day, Study Day 1, Female.

On to `C=CC(=O)N1CC[C@@H](n2nc(-c3ccc(Oc4c(F)c(F)cc(F)c4F)cc3F)c3c(N)ncnc32)C1` [Compound 45, 1-((R)-3-(4-amino-3-(2-fluoro-4-(2,3,5,6-tetrafluorophenoxy)phenyl)-1H-pyrazolo[3,4-d]pyrimidin-1-yl)pyrrolidin-1-yl)prop-2-en-1-one], for which the “AUC compared to ibrutinib” value in series [1] and in series [3] was “significantly higher” in each case. Further, the Cmax is on record as 2660 ng/mL in series [1] (40 mg/kg, Study Day 1, Female); 2090 ng/mL in series [1] (40 mg/kg, Study Day 28, Male); 3830 ng/mL in series [1] (setting [4]); 4540 ng/mL in series [1] (200 mg/kg, Study Day 28, Male); 1220 ± 431 ng/mL in series [3] (setting [5]); 2460 ± 858 ng/mL in series [3] (150 mg/kg/day, Study Day 1, Male). The AUC0-24 h in series [1] (setting [4]) came to 29600 ng·h/mL; in series [1] (100 mg/kg, Study Day 28, Male) it was 30300 ng·h/mL; in series [3] (setting [5]), 6220 ± 3000 ng·h/mL. In addition, the AUC in series [1] (40 mg/kg, female) turned out to be 17300 ng·h/mL; in series [1] (40 mg/kg, male) it was 13700 ng·h/mL; in series [3] (female) it was 2930 ng·h/mL; in series [3] (male), 3550 ng·h/mL. For the same molecule, the “Bioavailability compared to ibrutinib” value in series [2] was “superior bioavailability”. Further, the “Drug exposure, Day 1 versus Day 28” value in series [2] is listed as “no significant difference”. The “Drug exposure, male versus female” value in series [2] was “no significant difference”. Moreover, the “Pharmacokinetics compared to ibrutinib” value in series [2] is “excellent pharmacokinetics”. Also, the “Toxicity compared to ibrutinib” value in series [2] was “low toxicity”.
